In PMC3863386 (Journal of the American Chemical Society, 2013):
Read-outs that look alike come from different tables or passages of the source.

Assays:
LsrR [1] = biological target: T1, LsrR (Escherichia coli, UniProt P76141); settings: for ΔH / ΔS: ITC titration of LsrR
LsrR [2] = biological target: T1, LsrR; settings: compared to LsrR alone
C-LsrR T220A = C-LsrR T220A (Escherichia coli, UniProt P76141, T220A); settings: compared to wild type C-LsrR
C-LsrR Q215A = C-LsrR Q215A (Escherichia coli, UniProt P76141, Q215A); settings: compared to wild type C-LsrR
C-LsrR Q215A, sequence (P76141 53-317 Q215A): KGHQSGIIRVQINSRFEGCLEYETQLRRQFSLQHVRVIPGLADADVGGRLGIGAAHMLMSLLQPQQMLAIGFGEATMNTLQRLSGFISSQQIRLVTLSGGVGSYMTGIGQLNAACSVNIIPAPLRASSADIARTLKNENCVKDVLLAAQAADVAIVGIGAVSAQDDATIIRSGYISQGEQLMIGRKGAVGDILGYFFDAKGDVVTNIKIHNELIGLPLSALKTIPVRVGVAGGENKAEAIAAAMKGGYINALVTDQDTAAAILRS

C-LsrR D243A = C-LsrR D243A (Escherichia coli, UniProt P76141, D243A); settings: compared to wild type C-LsrR
C-LsrR D243A, sequence (P76141 53-317 D243A): as the sequence (P76141 53-317 Q215A) above, with A163Q, D191A counted along it

C-LsrR K288A = C-LsrR K288A (Escherichia coli, UniProt P76141, K288A); settings: compared to wild type C-LsrR
C-LsrR K288A, sequence (P76141 53-317 K288A): as the sequence (P76141 53-317 Q215A) above, with A163Q, K236A counted along it

LsrR [3] = settings: cited from earlier work
C-LsrR = C-LsrR (Escherichia coli, UniProt P76141); experiment: biochemical; settings: LsrR-binding affinity (Kd), approximate, rounded summary value
C-LsrR, sequence (P76141 53-317): as the sequence (P76141 53-317 Q215A) above, with A163Q counted along it

[4] = tested on: QS signaling in S. typhimurium; settings: after in vivo phosphorylation by LsrK; cited from earlier work
QS signaling in E. coli = settings: after in vivo phosphorylation by LsrK; cited from earlier work
E. coli biofilms = settings: simultaneous treatment with the antibiotic gentamicin; cited from earlier work

T1 sequence (P76141 whole entry): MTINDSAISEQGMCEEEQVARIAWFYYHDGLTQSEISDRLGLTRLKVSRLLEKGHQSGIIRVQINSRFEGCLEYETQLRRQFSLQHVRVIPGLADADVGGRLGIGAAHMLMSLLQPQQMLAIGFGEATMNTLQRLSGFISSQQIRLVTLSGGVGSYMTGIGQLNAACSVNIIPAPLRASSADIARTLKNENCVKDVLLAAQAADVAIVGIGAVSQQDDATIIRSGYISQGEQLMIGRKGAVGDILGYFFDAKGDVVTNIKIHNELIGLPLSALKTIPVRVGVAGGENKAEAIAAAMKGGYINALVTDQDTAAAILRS
C-LsrR T220A, sequence (P76141 53-317 T220A): as the sequence (P76141 53-317 Q215A) above, with A163Q, T168A counted along it

| Compound | ΔH (LsrR [1]; 20°C) [kcal/mol] | ΔS (LsrR [1]; 20°C) [cal/mol/K] | Change of the DLS size distribution of LsrR on addition of ligand (LsrR [2]) | Agonist or antagonist (LsrR [3]) | also measured |
| --- | --- | --- | --- | --- | --- |
| CC(=O)C(=O)[C@@H](O)COP(=O)(O)O [D5P, phospho-DPD] | 0.98 | 23.0 | clearly changed the DLS pattern of LsrR | agonists | Kd (LsrR [1]; read-out: Kd of LsrR (ITC), ITC, 20°C, one-site binding model): 1.78 ± 0.13 µM; Kd (LsrR [1]; read-out: LsrR-binding affinity (Kd), approximate, rounded summary value): ~2 µM; Effect of T220A mutation on D5P binding affinity (C-LsrR T220A): significant decrease of the binding affinity; Effect of Q215A mutation on D5P binding affinity (C-LsrR Q215A): moderate; Effect of D243A mutation on D5P binding affinity (C-LsrR D243A): less affinity for D5P than the wild type; Effect of K288A mutation on D5P binding affinity (C-LsrR K288A): less affinity for D5P than the wild type |
| CCC(=O)C(=O)[C@@H](O)COP(=O)(O)O [D6P, phospho-ethyl-DPD] |  |  |  | agonists |  |
| CCCC(=O)C(=O)C(O)COP(=O)(O)O (stereo not shown) [D7P, phospho-propyl-DPD] |  |  |  | antagonist |  |
| O=C[C@H](O)[C@H](O)[C@H](O)COP(=O)(O)O [R5P, D-ribose 5-phosphate] |  |  | did not show any apparent changes in the size distribution |  | Kd (C-LsrR): ~1000 µM |
| CC(C)CC(=O)C(=O)[C@@H](O)CO [isobutyl-DPD] |  |  |  |  | Effect on QS signaling [4]: attenuated QS signaling; Effect on QS signaling (QS signaling in E. coli): attenuated QS signaling; Effect on biofilms (E. coli biofilms): dramatically reduced biofilm formation and cleared extant biofilms |
| phospho-isobutyl DPD [D8P] | 5.3 | 11.2 | did not show any apparent changes in the size distribution | antagonist | Inhibition of LsrR / QS signal transduction (LsrR [3]): very potent inhibitor |
